The subject of the assay is contractile response to histamine, terminal ileum. Briefly: Antihistaminic action: inhibition of contractile response to histamine (10^-6 M) in isolated terminal ileum. To be noted: for inhibition at 1 µM / inhibition at 0.1 µM / inhibition at 0.01 µM: Cavia porcellus. In kind it is cell-based, guinea-pig. Here is the method:
The terminal ileum was removed from a starved guinea-pig and set up in an organ bath containing Tyrode solution maintained at 26° C. Contractile tension was recorded isometrically under a tension of 1.5 g with a strain-gauge transducer. After obtaining control response to histamine (10^-6 M), antagonists were added to the bath and allowed to remain in contact with the tissue for 3 minutes. Contractile response to histamine in the presence of the antagonists was recorded and the inhibitory rate was calculated according to the following equation: [formula] The tissue was then washed at 10 min intervals with fresh Tyrode solution. Contractile response to histamine was tested after each wash in order to study the duration of action of the antagonists.

Setting [1] is: 0.05 h, antagonist 10^-6 M, 3 min contact, before washing, read-out: Inhibitory rate before washing.
Setting [2] is: 0.05 h, antagonist 10^-7 M, 3 min contact, before washing, read-out: Inhibitory rate before washing.
Where [3] appears, read: 0.05 h, antagonist 10^-8 M, 3 min contact, before washing, read-out: Inhibitory rate before washing.
Where [4] appears, read: antagonist 10^-6 M, after 1st washing, read-out: Inhibitory rate after 1st washing.
Where [5] appears, read: antagonist 10^-6 M, after 2nd washing, read-out: Inhibitory rate after 2nd washing.
The mark [6] stands for this setting: antagonist 10^-7 M, after 1st washing, read-out: Inhibitory rate after 1st washing.
[7] abbreviates: antagonist 10^-7 M, after 2nd washing, read-out: Inhibitory rate after 2nd washing.
Where [8] appears, read: antagonist 10^-8 M, after 1st washing, read-out: Inhibitory rate after 1st washing.
Where [9] appears, read: antagonist 10^-7 M, after 3rd washing, read-out: Inhibitory rate after 3rd washing.
Setting [10] is: antagonist 10^-8 M, after 2nd washing, read-out: Inhibitory rate after 2nd washing.
[11] abbreviates: 0.05 h, read-out: Inhibitory rate before washing.
Where [12] appears, read: read-out: Inhibitory rate after 1st washing.
Setting [13] is: read-out: Inhibitory rate after 2nd washing.
[14] abbreviates: antagonist 10^-6 M, after 3rd washing, read-out: Inhibitory rate after 3rd washing.
The mark [15] stands for this setting: antagonist 10^-8 M, after 3rd washing, read-out: Inhibitory rate after 3rd washing.

Read-outs that look alike come from different tables or passages of the source.

Take `Cn1c(=O)c2c(ncn2CCCN2CCCN(c3ccccc3)CC2)n(C)c1=O` [(4)]: the inhibition at 1 µM worked out at 100% under setting [1], 10% under setting [4] and 0% under setting [5]. Moreover, the inhibition at 0.1 µM worked out at 64% under setting [2], 4% under setting [6] and 0% under setting [7]. Further, the inhibition at 0.01 µM is, setting by setting: under setting [3], 12%; under setting [8], 0%.
On to `Cn1c(=O)c2c(ncn2CCCN2CCCN(Cc3ccc(Cl)c(Cl)c3)CC2)n(C)c1=O` [(8)], for which the inhibition at 0.1 µM by setting is: under setting [2], 65%; under setting [6], 55%; under setting [7], 28%; under setting [9], 28%. The inhibition at 0.01 µM under setting [3] stood at 11%, the inhibition at 0.01 µM under setting [8] turned out to be 29% and the inhibition at 0.01 µM under setting [10] stood at 19%. Moreover, where the note is “antagonist 10^-7 M”, the “Inhibitory rate after 4th washing” value was 20%.
Turning to `CN1CCCN(C(c2ccccc2)c2ccc(Cl)cc2)CC1` (stereo not drawn) [(3), Homochlorcyclizine, reference compound], under setting [11], the inhibition at 0.01 µM stood at 13% and the inhibition at 0.1 µM came out at 88%. Besides, under setting [12], the inhibition at 0.01 µM worked out at 46% and the inhibition at 0.1 µM came to 84%. Besides, under setting [13], the inhibition at 0.01 µM was 42% and the inhibition at 0.1 µM amounted to 63%. Under “read-out: Inhibitory rate after 3rd washing”, the inhibition at 0.1 µM came to 55%. Also, where the note is “antagonist 10^-7 M”, the “Inhibitory rate after 4th washing” value was found to be 39%, the “Inhibitory rate after 5th washing” value is 25% and the “Inhibitory rate after 6th washing” value is 33%.
Take `CC(CN1c2ccccc2Sc2ccccc21)N(C)C` (stereo not drawn) [(1), Promethazine, reference compound]: the inhibition at 0.1 µM was 87% under setting [2], 77% under setting [6], 56% under setting [7] and 37% under setting [9]. The inhibition at 0.01 µM by setting is: under setting [3], 37%; under setting [8], 44%.
As for `Cn1c(=O)c2c(ncn2CCCN2CCCN(Cc3ccc(F)cc3)CC2)n(C)c1=O` [(9)], the inhibition at 1 µM under setting [1] is 100%, the inhibition at 1 µM under setting [4] worked out at 27%, the inhibition at 1 µM under setting [5] came out at 5% and the inhibition at 1 µM under setting [14] was determined as 0%. For the same compound, the inhibition at 0.1 µM runs as follows: under setting [2], 77%; under setting [6], 20%; under setting [7], 13%; under setting [9], 5%. Moreover, the inhibition at 0.01 µM is, setting by setting: under setting [3], 10%; under setting [8], 7%; under setting [10], 7%; under setting [15], 1%.
In the case of `Cn1c(=O)c2c(ncn2CCCN2CCCN(Cc3ccccc3Cl)CC2)n(C)c1=O` [(6)], the inhibition at 1 µM amounted to 100% under setting [1] and 100% under setting [4]. For the same compound, the inhibition at 0.1 µM runs as follows: under setting [2], 80%; under setting [6], 73%; under setting [7], 58%; under setting [9], 47%. The inhibition at 0.01 µM amounted to 14% under setting [3], 14% under setting [8], 14% under setting [10] and 6% under setting [15]. Besides, under “antagonist 10^-7 M”, the “Inhibitory rate after 4th washing” value is on record as 38%. Further, the “Inhibitory rate after 5th washing” value (antagonist 10^-7 M) amounted to 29%. Moreover, the “Inhibitory rate after 6th washing” value (antagonist 10^-7 M) worked out at 29%. In addition, the “Inhibitory rate after 7th washing” value (antagonist 10^-7 M) is 20%.
`Cn1c(=O)c2c(ncn2CCCN2CCCN(Cc3ccc([N+](=O)[O-])cc3)CC2)n(C)c1=O` [(10)]: the inhibition at 1 µM amounted to 100% under setting [1], 46% under setting [4] and 19% under setting [5]. Also, the inhibition at 0.1 µM stood at 65% under setting [2] and 16% under setting [6]. The inhibition at 0.01 µM under setting [3] was 21%, the inhibition at 0.01 µM under setting [8] turned out to be 12% and the inhibition at 0.01 µM under setting [10] amounted to 0%.
Turning to `Cn1c(=O)c2c(ncn2CCCN2CCCN(Cc3ccc(Cl)cc3Cl)CC2)n(C)c1=O` [(7)], the inhibition at 1 µM under setting [1] came out at 96%, the inhibition at 1 µM under setting [4] amounted to 100%, the inhibition at 1 µM under setting [5] is 100% and the inhibition at 1 µM under setting [14] was determined as 100%. Besides, the inhibition at 0.1 µM is 78% under setting [2], 59% under setting [6], 52% under setting [7] and 30% under setting [9]. The inhibition at 0.01 µM reads like this: under setting [3], 6%; under setting [8], 42%; under setting [10], 46%; under setting [15], 46%. Further, the “Inhibitory rate after 4th washing” value (antagonist 10^-6 M) is given as 83%. Further, the “Inhibitory rate after 5th washing” value runs as follows: (antagonist 10^-6 M) 87%; (antagonist 10^-8 M) 32%. For the same compound, the “Inhibitory rate after 6th washing” value amounted to 85% (antagonist 10^-6 M) and 18% (antagonist 10^-8 M). For the same compound, for the setting “antagonist 10^-8 M”, the “Inhibitory rate after 7th washing” value worked out at 14%.
`Cn1c(=O)c2c(ncn2CCCN2CCCN(Cc3ccccc3)CC2)n(C)c1=O` [(11)]: the inhibition at 0.1 µM by setting is: under setting [2], 78%; under setting [6], 10%; under setting [7], 4%; under setting [9], 0%. In addition, the inhibition at 0.01 µM by setting is: under setting [3], 0%; under setting [8], 0%.
As to `Cn1c(=O)c2c(ncn2CCCN2CCCN(Cc3ccc(Cl)cc3)CC2)n(C)c1=O` [(5)], the inhibition at 1 µM under setting [1] was 100%, the inhibition at 1 µM under setting [4] worked out at 84%, the inhibition at 1 µM under setting [5] turned out to be 65% and the inhibition at 1 µM under setting [14] was 58%. Besides, the inhibition at 0.1 µM came out at 100% under setting [2], 64% under setting [6], 31% under setting [7] and 20% under setting [9]. Moreover, the inhibition at 0.01 µM worked out at 2% under setting [3], 7% under setting [8] and 4% under setting [10]. Moreover, under “antagonist 10^-7 M”, the “Inhibitory rate after 5th washing” value turned out to be 0%.

For the origin of these results see patent US4599414A, “Theophylline derivatives” (Eisai Co., Ltd., priority 1979, dated 1986).
